The record followed here is patent publication US8822509B2, “Pain-relieving compositions and uses therefor” (priority 2006, dated 2014).

The target of series [1] is T1, μ-opioid receptors (MOP receptors) (Mus musculus, UniProt P42866).
T1 construct: expressed in transfected cells; host or cells: HEK293
The class given is cell-based. The method, then: Briefly, HEK-MOP cells were pre-incubated with 2% (2-hydroxypropyl)-β-cyclodextrin (βCD) for 1 h at 37° C. to deplete cholesterol from caveloae in the cell membrane. Cells were washed with DMEM and then utilized in the forskolin-stimulated cAMP assay as described above. […] Cells were washed with DMEM and then utilized in the forskolin-stimulated cAMP assay as described above.

Series [2] can be described thus: In vitro NO release (Total NOx, modified Griess reagent assay). The settings on record: assay of Example 9; for 1 Hour Total NOx: NOx analysis at 1 hour; for 6 Hours Total NOx: NOx analysis at 6 hours. As to the method: Briefly, HEK-MOP cells were seeded at 1×10^5 cells/mL and grown in 10 cm plates to 90% confluence. Four hours prior to experimentation, cell medium was replaced with phenol red-free DMEM. […] Following removal of each supernatant sample, it was replaced with 500 μL of phenol red-free DMEM. Samples were immediately placed on ice until NOx concentrations were quantified.
Sample aliquots (100 μL) were added to 96-well plates in duplicates. Nitrate was first converted to nitrite to determine total NOx concentrations with the addition of 100 μL aliquots of vanadium (III) chloride in 1M HCl (800 mg/100 mL) per well, followed by 100 μL aliquots of modified Griess reagent which converted nitrite to a deep purple azo derivative for spectrophotometric quantification at 560 nm using an Envision Multilabel Plate Reader (PerkinElmer Life Sciences). […] Total NOx and nitrite concentration was determined through inverse prediction against the nitrite standard curve.
Background: Griess reagent forms a coloured azo dye with nitrite.

For series [3], the target named is T1, μ-opioid receptors (MOP receptors). The class given is cell-based. The source holds these as a separate data set.
For series [4], the system named is mechanical allodynia in rats hyporesponsive to morphine. Nature of the series: Relief of mechanical allodynia (PWT) in rats hyporesponsive to morphine. The format is in vivo.
The test system of series [5] is non-diabetic control rats. Nature of the series: Tolerance development (7-day continuous s.c. infusion, 2-day washout) in non-diabetic control rats, von Frey PWT. The class given is in vivo.
Series [6] deals with STZ-diabetic rats. Kind of series: Behavioural side-effects in STZ-diabetic rats. The settings on record: Compound 1 800 pmol/kg s.c.; morphine 21 μmol/kg. The class given is in vivo.
Series [7] deals with STZ-diabetic rats. Nature of the series: Tolerance development (7-day s.c. infusion, 2-day washout) in STZ-diabetic rats, von Frey PWT. The class given is in vivo.
Series [8] relates to hindpaws of control non-diabetic rats. Kind of series: Antinociception by von Frey PWT in control non-diabetic rats. The note with it: single s.c. bolus; morphine 1.8-21.4 μmol/kg, Compound 1 2-20 fmol/kg. The format is in vivo, Wistar rats. As to the method:
(§1) Briefly, baseline PWTs were determined for both hindpaws prior to each antinociceptive testing session in the non-diabetic control group at week 0 as well as in groups of STZ-diabetic rats at 10, 14 and 24 wks.
(§2) The PWT vs time data were normalized by subtracting the pre-dosing baseline PWT values for each individual rat to obtain ΔPWT values as follows: Normalized (Δ)PWT value=Post-treatment PWT value−PWT value prior to treatment.
(§3) ΔPWT versus time curves were then constructed. Trapezoidal integration was used to estimate ΔPWT AUC values for individual rats in the non-diabetic and STZ-diabetic rat treatment groups. ΔPWT AUC versus dose curves were constructed and GraphPad™ Prism was used to estimate the ˜ED50 values.

Series [9] relates to tactile (mechanical) allodynia in hindpaws of STZ-diabetic rats. Nature of the series: Anti-allodynia by von Frey paw withdrawal thresholds (PWT) in STZ-diabetic rats. The class given is in vivo, Wistar rats. As to the method:
Following this, the jugular cannula was withdrawn, the vein tied off, and the incision sutured. Following surgery, rats received antibiotic prophylaxis in the form of topical dusting powder over the sutured incisions, as well as a subcutaneous injection of benzylpenicillin (60 mg). Rats were placed in individual cages, kept warm and monitored closely during the surgical recovery period. Rats were classified as diabetic if on day 10 post-STZ administration, their daily water intake was ≧100 mL and their corresponding blood glucose levels (BGLs) were ≧15 mM.
Calibrated von Frey filaments were used to document the time course for the development and maintenance of tactile allodynia (defining symptom of PDN).
as §1, §2, §3

Where [10] appears, read: drug-naïve non-diabetic rats, Compound 1 8 fmol/kg, morphine 2.8 mmol/kg (so in the source) s.c. bolus.
[11] abbreviates: non-diabetic rats, second s.c. bolus after 7-day infusion and 2-day washout.
Setting [12] is: week 10 post-STZ, morphine 2.8 μmol/kg s.c.

Structures are written as SMILES. Where two headings read alike, the source gives them in different places. Marks after values point to notes of the source that are not given here.

T1 sequence (P42866 whole entry): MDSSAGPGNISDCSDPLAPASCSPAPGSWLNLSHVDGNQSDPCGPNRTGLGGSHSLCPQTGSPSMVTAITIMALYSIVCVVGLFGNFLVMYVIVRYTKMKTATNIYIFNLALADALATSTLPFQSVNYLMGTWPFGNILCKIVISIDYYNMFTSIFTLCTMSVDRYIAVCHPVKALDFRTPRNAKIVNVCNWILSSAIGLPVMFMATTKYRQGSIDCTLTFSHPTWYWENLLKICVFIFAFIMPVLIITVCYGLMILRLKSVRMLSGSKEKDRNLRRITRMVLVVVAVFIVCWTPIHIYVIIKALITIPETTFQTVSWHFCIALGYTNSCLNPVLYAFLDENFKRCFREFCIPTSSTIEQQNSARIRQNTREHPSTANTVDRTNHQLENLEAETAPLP

Take `Cc1c(C(=O)O)no[n+]1[O-]` [Compound 6]: the “% of forskolin stimulated cyclic AMP response” value turned out to be 8.1% in [1] (Conc 10^−3 M); 115.0% in series [1] (Conc 10^−4 M); 138.7% in series [1] (Conc 10^−5 M); 109.7% in series [1] (Conc 10^−6 M); 110.5% in series [1] (Conc 10^−7 M); 111.2% in [1] (Conc 10^−8 M). Besides, the “% of forskolin stimulated cyclic AMP response” value is 88.2% in series [1] (Conc 10^−9 M); 88.0% in series [1] (Conc 10^−11 M); 128.0% in series [1] (Conc 10^−13 M); 98.2% in series [1] (Conc 10^−14 M); 79.0^a % in series [1] (Conc 10^−15 M); 149.0% in [1] (Conc 10^−16 M). Moreover, the “% of forskolin stimulated cyclic AMP response” value in [1] (Conc 10^−17 M) is on record as 83.9%; in [1] (Conc 10^−18 M), 60.4%; in series [3] (Conc 10^−10 M), 61.5%; in [3] (Conc 10^−12 M), 91.1%. The “1 Hour Total NOx” value in series [2] was 0.31 µM. Further, the “6 Hours Total NOx” value in series [2] was determined as 0.53 µM.
`O=C1CCc2c1no[n+]2[O-]` [Compound 16]: the “% of forskolin stimulated cyclic AMP response” value is recorded as 18.9% in series [1] (Conc 10^−3 M); 44.3% in [1] (Conc 10^−4 M); 105.2% in series [1] (Conc 10^−5 M); 83.5% in series [1] (Conc 10^−6 M); 119.9% in series [1] (Conc 10^−7 M); 62.2% in series [1] (Conc 10^−8 M). Also, the “% of forskolin stimulated cyclic AMP response” value in [1] (Conc 10^−9 M) is given as 125.4%; in series [1] (Conc 10^−11 M) it was 67.1%; in series [1] (Conc 10^−13 M) it was 98.8%; in series [1] (Conc 10^−14 M), 106.3%; in series [1] (Conc 10^−15 M), 97.7%; in series [1] (Conc 10^−16 M) it was 108.3%. For the same molecule, the “% of forskolin stimulated cyclic AMP response” value is listed as 100.4% in series [1] (Conc 10^−17 M), 62.4^a % in series [1] (Conc 10^−18 M), 101.3% in series [3] (Conc 10^−10 M) and 59.3% in [3] (Conc 10^−12 M). In addition, the “1 Hour Total NOx” value in series [2] was determined as 1.08 µM. The “6 Hours Total NOx” value in [2] is 1.19 µM.
Consider `O=C(c1no[n+]([O-])c1-c1ccccc1)C(F)(F)F` [Compound 22], for which the “% of forskolin stimulated cyclic AMP response” value was determined as 0.3% in series [1] (Conc 10^−3 M); 18.2% in series [1] (Conc 10^−4 M); 77.9% in series [1] (Conc 10^−5 M); 87.5% in [1] (Conc 10^−6 M); 68.4% in [1] (Conc 10^−7 M); 82.1% in series [1] (Conc 10^−8 M). Also, the “% of forskolin stimulated cyclic AMP response” value came out at 65.2% in [1] (Conc 10^−9 M); 59.2% in series [1] (Conc 10^−11 M); 70.5% in [1] (Conc 10^−13 M); 104.6% in series [1] (Conc 10^−14 M); 89.0% in series [1] (Conc 10^−15 M); 73.2% in series [1] (Conc 10^−16 M). Besides, the “% of forskolin stimulated cyclic AMP response” value is recorded as 59.4^b % in series [1] (Conc 10^−17 M), 47.0% in [1] (Conc 10^−18 M), 66.1% in series [3] (Conc 10^−10 M) and 62.4% in series [3] (Conc 10^−12 M). Further, the “1 Hour Total NOx” value in [2] is 1.63 µM. The “6 Hours Total NOx” value in series [2] turned out to be 2.52 µM.
As for `[O-][n+]1onc(-c2ccccc2)c1CO` [Compound 31], the “% of forskolin stimulated cyclic AMP response” value in series [1] (Conc 10^−3 M) is listed as 3.8%; in series [1] (Conc 10^−4 M) it was 182.4^a %; in [1] (Conc 10^−5 M), 96.9^a %; in series [1] (Conc 10^−6 M), 60.0^a %; in series [1] (Conc 10^−7 M), 108.4%; in series [1] (Conc 10^−8 M), 36.2^a %. Also, the “% of forskolin stimulated cyclic AMP response” value is on record as 76.8^a % in [1] (Conc 10^−9 M); 61.0% in series [1] (Conc 10^−11 M); 85.7% in series [1] (Conc 10^−13 M); 77.5^a % in [1] (Conc 10^−14 M); 42.2^a % in series [1] (Conc 10^−15 M); 54.8% in [1] (Conc 10^−16 M). Further, the “% of forskolin stimulated cyclic AMP response” value in series [1] (Conc 10^−17 M) is given as 48.5^a %; in series [1] (Conc 10^−18 M) it was 94.5%; in series [3] (Conc 10^−10 M), 42.8^a %; in [3] (Conc 10^−12 M) it was 81.4%.
As to `O=C(O)CCCCO[N+](=O)[O-]` [Compound 33, 5-nitratopentanoic acid], in series [2], the “1 Hour Total NOx” value turned out to be 13.14 µM and the “6 Hours Total NOx” value was 67.69 µM. In series [4] (Compound 33 80 nmol/kg s.c. bolus), the “relief of mechanical allodynia” value is “insignificant relief”. Besides, the “relief of mechanical allodynia” value in series [4] (Compound 33 120, 800 and 1200 nmol/kg s.c. bolus) is recorded as “significant relief of mechanical allodynia”. Besides, in [4] (Compound 33 s.c. bolus), the duration of anti-allodynia was 2 to 3 h and the “time of peak anti-allodynia post-dosing” value was 0.75 to 1 h. Moreover, the “inhibition of forskolin-stimulated cyclic AMP formation” value in series [3] (μm to mm range (so in the source)) is listed as “dose dependent inhibition”.
`CN1CC[C@]23c4c5ccc(O)c4O[C@H]2[C@@H](O)C=C[C@H]3[C@H]1C5` [morphine, reference compound]: the “time of peak antinociception post-dosing” value in series [5] (drug-naïve non-diabetic rats, first s.c. bolus) was found to be 1 h. The “mean (±SEM) peak PWT” value in [5] (setting [10]) is 16.0 (±0.4) g; in series [5] (setting [11]) it was 12 (±0.3) g; in the series on STZ-diabetic rats [7] (naïve STZ-diabetic rats, Compound 1 800 pmol/kg, morphine 10.4 μmol/kg s.c. bolus), 10.7 (±0.3) g. Besides, the results for the “mean (±SEM) peak ΔPWT” value in [5] (setting [10]) and in series [5] (setting [11]) were 4.4 (±0.4) g and 0.5 (±0.3) g, respectively. In addition, the “tolerance after 7-day continuous s.c. infusion” value in series [5] (non-diabetic rats) was “antinociceptive tolerance developed”. In addition, in [5] (non-diabetic rats, after 2-day washout), the “antinociception after second bolus, naïve vs "tolerant" rats” value was “tolerant to the antinociceptive effects of morphine”. For the same molecule, in the series on STZ-diabetic rats [6], the “behavioural side-effects at highest dose” value was “staring and sedation”. Further, the “tolerance after 7-day s.c. infusion” value with STZ-diabetic rats [7] (STZ-diabetic rats) was “antinociceptive tolerance developed”. In addition, in the series with STZ-diabetic rats [7] (STZ-diabetic rats, after 2-day washout, morphine 10.5 μmol/kg, Compound 1 800 pmol/kg), the “anti-allodynia after second bolus (tolerance status)” value is listed as “insignificant anti-allodynia”. For the same molecule, the “time of peak anti-allodynia post-dosing” value in the series on STZ-diabetic rats [7] (naïve STZ-diabetic rats, first s.c. bolus) is on record as 1 h. Besides, the “antinociception in the hindpaws of control non-diabetic rats” value in series [8] was “dose-dependent antinociception”. Also, the “time of peak effect post-dosing” value in series [9] (morphine 1.8-21.4 μmol/kg s.c. (FIG. 2)) is 30 to 60 min. For the same molecule, in [9] (single s.c. bolus at 10, 14, 24 wks post-STZ), the “anti-allodynia in the hindpaws of STZ-diabetic rats” value is “dose-dependent anti-allodynia”. For the same molecule, the “mean (±SEM) PWT at time of peak response” value in series [9] (setting [12]) was 10.7 ± 0.6 g. Further, the “reversal of mechanical allodynia at time of peak response” value in series [9] (setting [12]) is given as “fully reversed mechanical allodynia”. Also, the anti-allodynic potency result was “significantly reduced” in [9] (week 14 post-STZ, morphine 2.8 μmol/kg s.c.); “markedly reduced” in series [9] (week 24 post-STZ, morphine 10.5 and 21.4 μmol/kg s.c.). In series [9] (week 14 post-STZ, morphine 10.5 μmol/kg s.c.), the “relief of mechanical allodynia at time of peak response” value is reported as “completely relieved mechanical allodynia”.
